We go through 4 compounds from PubChem BioAssay AID435016 (Vanderbilt High Throughput Screening Facility, 2010).

The test system of this test is HEK293 alpha2C/GIRK, thallium flux fluorescence. The experiment in a line: alpha2C-dependent GIRK activation, antagonist reversal – cell-based, thallium flux, with rauwolscine, mechanism study for alpha2C adrenergic receptor project, dose response (AID 435016).
In general, EC50 refers to the concentration giving half of the maximal effect. Consider `C=CCn1c(=S)[nH]c2ccccc2c1=O`, for which the half-maximal effective concentration (EC50) worked out at 3.19 µM.
`CCSc1nnc(NC(=O)NC(CC)(C(F)(F)F)C(F)(F)F)s1`: the EC50 stood at 3.24 µM.
`O=c1c(-c2ccc3c(c2)OCCO3)c(C(F)(F)F)oc2cc(O)cc(O)c12`: the concentration for a half-maximal effect (EC50) is 9.18 µM.
As to `CCOC(=O)c1ccc(NC(=O)NC(C)C2CCCO2)cc1` (centres undefined), the EC50 is 49.9 µM.
